Measured values reported in PubChem BioAssay AID179 (DTP/NCI, 2004).
Active and inactive are the calls of the source.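 Rule for the calls: active = compounds giving half or more protection of infected cells from virus-caused growth loss, again on retest; inactive = the rest.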

Tested on: CEM cells HIV-1 protection, formazan growth assay
Assay: NCI AIDS Antiviral Assay
Details: for IC50: measured here: growth of uninfected CEM cells
Procedure, shortened: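 Steps: treat uninfected and HIV-1-infected human CEM cells at five drug levels; quantify growth by soluble formazan; retest any compound reaching 50% protection; classify actives from the retest.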

Structure (SMILES)	EC50	IC50	outcome
Cc1cccc(C(C)(C)C)c1NC(=O)CC1Sc2ccccc2NC1=O (configuration not stated)	> 51.3 µM	> 51.3 µM	–
CCOCCCCS(=O)(=O)O	> 200 µM	> 200 µM	–
CCOP(=O)(OCC)C(C1OC(n2ccc(=O)[nH]c2=O)C(O[Si](C)(C)C(C)(C)C)C1O[Si](C)(C)C(C)(C)C)N(C)O (configuration not stated)	> 200 µM	4.79 µM	–
O=C(C(c1ccccc1)c1ccccc1)C(O)(c1ccccc1)c1ccccc1	30.9 µM	34.7 µM	–
Cc1ccc(C(=O)O/N=C2/CCC/C2=C\c2ccccc2)cc1	–	–	inactive
O=C1CCS(=O)(=O)O1	> 1820 µM	> 1820 µM	–
CCCCC[C@@H]1CCCC2N=C(CCCCC3OCCO3)CCC21 (some centres not stated)	–	–	inactive
O=S(=O)(O)c1cc(NC(=S)c2ccc3cccnc3c2O)ccc1/C=C/c1ccc(NC(=S)c2ccc3cccnc3c2O)cc1S(=O)(=O)O	13.8 µM	72.4 µM	–
Cc1ccc(Nc2nc(N)nc(N)c2N=O)cc1C	> 200 µM	> 200 µM	–
C/C(=N\NC(=S)N1CC2CCC(CC2)C1)c1cccc(C)n1	> 31.6 µM	0.55 µM	–
COc1ccc2c(c1)C(=O)C13CC(C(=O)N(C)C)C(OC(C)=O)(CCC21)C3 (configuration not stated)	> 95.5 µM	> 95.5 µM	–
Cc1ccc(-c2cc(-c3ccccc3)c(C#N)c(=O)[nH]2)cc1	> 66.1 µM	> 66.1 µM	–
CCOP(=O)(OCC)/C(C#N)=C\c1ccccc1	> 355 µM	> 355 µM	–
O=C(CNc1nncs1)NO	> 1450 µM	162 µM	–
S=C1NCCS1	> 2090 µM	1170 µM	–
O=S(=O)(O)CCNC(=S)C(=S)NCCS(=O)(=O)O	–	–	inactive
COc1cc2c(cc1O)C(Cc1ccc(Oc3cc(CC4c5cc(O)c(OC)cc5CCN4C)ccc3O)cc1)N(C)CC2 (configuration not stated)	–	–	inactive
Cc1ccc(S(=O)(=O)N(C=O)N=C2CCN(Cc3ccccc3)CC2)cc1	> 61.7 µM	> 61.7 µM	–
Cc1cn(C2CC(O[Si](C)(C)C(C)(C)C)C(/C=N\O)O2)c(=O)[nH]c1=O (configuration not stated)	> 200 µM	> 200 µM	–
COC(=O)C1(O)C(c2ccccc2)NC2(C)CCCC21 (configuration not stated)	> 200 µM	> 200 µM	–
O=C1c2ccccc2C(=O)C1(Cl)C(Cl)c1ccc([N+](=O)[O-])cc1 (configuration not stated)	> 200 µM	12 µM	–
C=CCc1ccc(O)c(-c2cc(C3Oc4c(-c5cc(CC=C)ccc5O)cc(O)cc4[C@@H]3CO)ccc2O)c1 (some centres not stated)	> 100 µM	91.2 µM	–

Structure (SMILES)	EC50	IC50	outcome
COc1cccc(C=C(C(C)=O)C(C)=O)c1	> 120 µM	58.9 µM	–
COC1(OC)c2occc2C(=N)c2ccc(=O)oc21	> 200 µM	129 µM	–
O=[N+]([O-])c1ccc(/C(Cl)=C/c2ccc(/C=C(\Cl)c3ccc([N+](=O)[O-])cc3[N+](=O)[O-])cc2)c([N+](=O)[O-])c1	> 1.41 µM	> 1.41 µM	–
O=[N+]([O-])c1ccccc1Nc1ccccc1	–	–	inactive
O=C1OCSc2ccccc21	> 1070 µM	178 µM	–
COc1ccc(-c2onc3ccc(Cl)cc23)cc1	> 20 µM	> 20 µM	–
CN(N=O)C(=O)NC(CCCCNC(=O)OCc1ccccc1)C(=O)OCc1ccccc1 (configuration not stated)	> 21.9 µM	> 21.9 µM	–
N#Cc1ccc(C2OCC3CC=CCC3CO2)cc1 (configuration not stated)	> 53.7 µM	> 53.7 µM	–
CCCCCCCCP(=O)(O)OP(=O)(O)OCC1OC(n2ccc(N)nc2=O)C(O)C1O (configuration not stated)	> 200 µM	> 200 µM	–
Cc1cc(NS(=O)(=O)c2ccc(N=Nc3c(Nc4ccccc4)nn(-c4ccc(S(=O)(=O)Nc5ccncn5)cc4)c3C)cc2)no1	> 200 µM	> 200 µM	–
COc1ccc(C2(CC(C)O)SCCCS2)cc1 (configuration not stated)	> 200 µM	115 µM	–
O=C1/C(=C/c2ccc(F)cc2)CCC/C1=C\c1ccc(F)cc1	> 23.4 µM	> 23.4 µM	–
Cc1nc2n(c1C(N)=O)CCS2	> 200 µM	> 200 µM	–
COC1OC(Cn2c(C)nc(Br)c2Br)C(O)C(O)C1O (configuration not stated)	33.9 µM	> 200 µM	–
CO[C@@H]1[C@H](O)c2coc3c2[C@@](C)(c2ccc4c(c2C3=O)CCC4=O)[C@@H]1O	> 200 µM	28.8 µM	–
O=C1c2ccccc2C(=O)N1CSS(=O)(=O)O	> 200 µM	> 200 µM	–
O=S(=O)(SS(=O)(=O)c1ccccc1)c1ccccc1	> 115 µM	> 115 µM	–
O=C1C=C(c2ccccc2)C(c2ccccc2)C1O (configuration not stated)	> 200 µM	135 µM	–
C=CCCC(=O)CC(=O)OC	> 1580 µM	> 1580 µM	–
COc1ccc2c(c1)C1OCCNC1CC2 (configuration not stated)	> 200 µM	> 200 µM	–
Nc1n[nH]c2c(C(=O)Nc3ccc(Cl)cc3)c(N)n(N)c(=O)c12	> 200 µM	> 200 µM	–
CCN(CC)CC(=O)Nc1cccc(C(=O)OC(C)C)c1	> 200 µM	> 200 µM	–

Structure (SMILES)	EC50	IC50	outcome
O=C(O)c1nc2ccc(C(F)(F)F)cc2nc1NCc1ccc(Cl)c(Cl)c1	> 200 µM	19.1 µM	–
Cc1ccccc1[P+](Cc1ccccc1)(c1ccccc1)c1ccccc1	> 200 µM	1.26 µM	–
CC(=O)Nc1ccccc1NC1CC(C)N(c2ccccc2)N1C(C)=O (configuration not stated)	> 200 µM	32.4 µM	–
N=C1SC23CCCN2C(=O)C2(CCCN2C3=O)S1	> 891 µM	174 µM	–
CCC(CON(C)c1ccccc1)(SC)SC	> 200 µM	105 µM	–
CCCn1c2ccccc2c2ccc3c(c21)C(=O)C=CC3=O	> 200 µM	1.17 µM	–
COC1(OC)C2(Cl)C3=CCCC=C3C1(Cl)C(Cl)=C2Cl	–	–	inactive
CC(=O)NC1C(OC(C)C(=O)NC(C)C(=O)NC(CCC(=O)NCCCNc2ccc([N+](=O)[O-])c3[nH]c4ccccc4c(=O)c23)C(N)=O)C(O)C(CO)OC1(C)OCc1ccccc1 (configuration not stated)	> 151 µM	15.8 µM	–
COC(=O)c1cc(=O)n(-c2ccc3nn(C)nc3c2)cc1C(=O)OC	> 200 µM	> 200 µM	–
O=c1ccc(=O)c2c1c1[nH]c3ccccc3c1c1c(=O)c3ccccc3c(=O)c21	> 200 µM	18.6 µM	–
CCCN1C(=O)CNC(=O)c2[nH]cnc21	–	–	inactive
COc1ccc(C2Oc3cc(OC)c(OC)cc3C2CCl)cc1OC (configuration not stated)	> 200 µM	107 µM	–
Nc1ccn(C2OC(COP(=O)(O)O)C(O)OC2O)c(=O)n1 (configuration not stated)	–	–	inactive
CC1=NN(C(=O)CC(=O)NC(=O)CC(=O)Nc2ccccc2F)C(=O)C1N=Nc1ccc([N+](=O)[O-])cc1 (configuration not stated)	> 70.8 µM	44.7 µM	–
Cc1ccc(S(=O)(=O)N/N=C(/CC(=O)c2c(C)n([O-])c3ccccc3[n+]2=O)C(=O)Nc2ccc(C)c(C)c2)cc1	> 6.46 µM	> 6.46 µM	–
Clc1ccc(-c2c(C3=NCCN3)nnn2-c2ccccc2)cc1	> 214 µM	174 µM	–
COc1ccc(-c2c3ccccc3c(-c3ccc(OCCCCCBr)cc3)c3ccccc23)cc1	> 2.75 µM	> 2.75 µM	–
O=C1OC(CN2CCN(c3ccccc3)CC2)CN1C(=S)Nc1ccccc1 (configuration not stated)	> 200 µM	115 µM	–
C=C1C(=O)OC2C1CCC(C)C1C=CC(=O)C12C (configuration not stated)	> 200 µM	1.07 µM	–
CCCCCCCCCCN=Cc1c(O)c(O)c(CCC)c2cc(C)c(-c3c(C)cc4c(CCC)c(O)c(O)c(C=NCCCCCCCCCC)c4c3O)c(O)c12	–	–	inactive
CC(=O)Oc1ccc(C[C@H]2COC(=O)[C@@H]2Cc2ccc(OC(C)=O)c(OC(C)=O)c2)cc1OC(C)=O	> 200 µM	17.4 µM	–
O=C(c1ccccc1)[C@H]1Nc2ccc(Cl)cc2[C@H]2OCCC[C@@H]12	> 11.5 µM	> 11.5 µM	–

Structure (SMILES)	EC50	IC50	outcome
N#Cc1cccc(/C=N/N=C(\N)NO)c1	> 479 µM	37.2 µM	–
CCO[Si](C)(OCC)OCC	> 200 µM	> 200 µM	–
Cc1c(N(Cc2ccccc2)Cc2ccccc2)nc(S(C)(=O)=O)nc1S(C)(=O)=O	–	–	inactive
CN(C)c1ccc(C=C2C(=O)OC(C)(C)OC2=O)cc1	–	–	inactive
CC(C)CCC[C@@H](C)[C@H]1CC[C@H]2C3=C[C@H](OS(=O)(=O)O)[C@@]4(O)C[C@@H](O)CC[C@]4(C)[C@@]3(O)CC[C@]12C	> 200 µM	97.7 µM	–
O=c1[nH]nc(-c2cccc(Br)c2)[nH]1	> 200 µM	> 200 µM	–
CCOc1ccc(NC(=S)NC=C(C#N)C#N)cc1	> 200 µM	> 200 µM	–
COc1cc(Cc2nnc(N)[nH]c2=O)cc(OC)c1OC	> 17.8 µM	> 17.8 µM	–
Cc1ccc(Nc2cn(COCc3ccccc3)c(=O)[nH]c2=O)cc1	> 200 µM	> 200 µM	–
O=C(O)C(=O)O.[NH-]C1CCCC1[NH-].[Pt+2] (configuration not stated)	> 200 µM	9.55 µM	–
O=C(NCCCCCCNC(=O)n1cc(F)c(=O)[nH]c1=O)NCCCOCCOCCOCCOCCOCCOCCOCCOCCOCCOCCOCCOCCOCCOCCOCCOCCOCCOCCOCCOCCOCCCNC(=O)C(O)C(O)C(O)C(O)CO (configuration not stated)	–	–	inactive
CC[C@@]1(O)C(=O)OCc2c1cc1n(c2=O)Cc2cc3cc(O)ccc3nc2-1	> 37.2 µM	0.00832 µM	–
COC(=O)C1(CCCCCBr)CCCCCCCCCCC1=O (configuration not stated)	> 200 µM	35.5 µM	–
O=C(O)CCSC(=O)Nc1ccccc1	–	–	inactive
C1Cc2nnnn2C1	> 2290 µM	> 2290 µM	–
CC(C)(C)[Si](C)(C)OC1(CCc2ccccc2OS(=O)(=O)C(F)(F)F)CCCC=C1COCc1ccccc1 (configuration not stated)	> 200 µM	39.8 µM	–
O=C(N=C1N(c2ccccc2)C(=O)C(=O)N1c1ccccc1)c1ccccc1	> 200 µM	5.62 µM	–
COc1ccc(Nc2nc(NNC(=O)Cc3ccccc3)nc(NNC(=O)c3ccncc3)n2)cc1	> 178 µM	174 µM	–
CC(=O)OCC(=O)[C@@]12OC(C)(C)O[C@@H]1C[C@H]1[C@@H]3CC(C=O)=C4C=C(OCCCl)CC[C@]4(C)[C@@]3(F)[C@@H](O)C[C@@]12C	> 200 µM	6.46 µM	–
c1ccc(N2N=NC3C4CC(C5c6ccccc6C45)C32)cc1 (configuration not stated)	–	–	inactive
FC(F)(F)c1ccc2c(c1)N(CCCN1CCNCC1)c1ccccc1S2	> 34.7 µM	21.4 µM	–
O=C(CCCN1CCC(C(=O)c2ccc(F)cc2)CC1)c1ccc(F)cc1	> 24.5 µM	> 24.5 µM	–
